Laboratory results taken from patent US20180000719A1, “A SKIN LIGHTENING COMPOSITION COMPRISING NIACINAMIDE AND ILOMASTAT” (Conopco, Inc., d/b/a UNILEVER, priority 2014, published 2018).

Columns and labels:
[1] = system: primary human melanocytes; test: cells
Method: (i) Cell Cultures: • Neonatal foreskin primary human melanocytes were procured from Life Technologies, USA. Cells were grown in Medium 254 supplemented with human melanocyte growth supplement-2 and maintained at 37° C. in a humidified incubator with 5% CO2 atmosphere. The maintenance and sub culturing of cells were carried out as per the manufacturer's instructions. Cells between passages 3-6 were used for experimentation.
(ii) Active Addition: • Cells were seeded at a density of 5×10^4/well in a 24 well plate in Melanocyte Growth Media (MGM) and incubated for 24 hrs at 37° C./5% CO2. Actives were added to cells along with relevant controls.
(iii) Cell Viability Assay • Briefly, spent media was removed and cells washed once with 0.2 ml of 1×PBS-Ca—Mg solution. Fresh 1 μM calcein-AM in PBS buffer was added to each well. Plates were incubated for 30 min. at 37° C. in a CO2 incubator. Calcein fluorescence was then measured (excitation at 490 nm and emission at 520 nm) in TECAN M1000 plate reader.
(iv) Melanin Content Assay: • After Calcein measurements, cultures were rinsed with PBS (1×) and lysed for 1 hour at 60° C. in a shaker incubator using NaOH/DMSO mix. Melanin content was measured in a Tecan plate reader (405 nm filter), corrected for cell numbers and represented as % inhibition.

Tyrosinase enzyme = biological target: T1, Tyrosinase enzyme (Homo sapiens, UniProt P14679); test: In vitro human tyrosinase activity assay (melanocytic lysate); type: biochemical
T1 construct: Primary human melanocytic lysate was used as a source of Tyrosinase enzyme; endogenous in cells; host or cells: primary human melanocytes (lysate)
T1 sequence (P14679 19-529): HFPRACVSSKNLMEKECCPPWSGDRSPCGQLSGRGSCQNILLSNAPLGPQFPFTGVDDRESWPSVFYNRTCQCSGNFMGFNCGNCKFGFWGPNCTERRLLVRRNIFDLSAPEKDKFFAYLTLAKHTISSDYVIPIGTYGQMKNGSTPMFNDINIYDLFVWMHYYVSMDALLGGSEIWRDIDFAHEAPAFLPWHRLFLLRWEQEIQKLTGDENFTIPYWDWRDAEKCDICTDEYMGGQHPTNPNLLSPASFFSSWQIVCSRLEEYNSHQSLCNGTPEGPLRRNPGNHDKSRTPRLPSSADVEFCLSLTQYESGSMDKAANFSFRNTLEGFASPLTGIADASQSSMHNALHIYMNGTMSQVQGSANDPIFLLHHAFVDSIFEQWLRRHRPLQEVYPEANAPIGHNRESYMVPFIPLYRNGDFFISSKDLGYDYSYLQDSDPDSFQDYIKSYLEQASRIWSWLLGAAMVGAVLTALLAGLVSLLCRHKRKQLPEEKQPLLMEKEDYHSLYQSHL
Method: (v) In Vitro Human Tyrosinase Activity Assay: • Primary human melanocytic lysate was used as a source of Tyrosinase enzyme. Human melanocytic lysate and test actives (at different concentrations) were incubated together for 15 mins, prior to addition of Tyrosine/DOPA substrate mix. Assay plate was then incubated at 37° C. for ˜14-16 hrs. Optical Density was measured at 405 nm and % Inhibition calculated.

[2] = Homo sapiens, Melanocyte, 72 h, read-out: Average % inhibition in cellular melanin

SMILES: CNC(=O)[C@H](Cc1c[nH]c2ccccc12)NC(=O)[C@@H](CC(=O)NO)CC(C)C [Galardin, (R)—N4-Hydroxy-N1-[(S)-2-(1H-indol-3-yl)-1-methylcarbamoyl-ethyl]-2-isobutyl-succinamide]
- inhibition at 1 µM [1, 2]: 6%
- inhibition at 10 µM [1, 2]: 17%
- reduction of melanin content in primary human melanocytes (in words) ([1]; galardin by itself at 1 μM): no reduction
- reduction of melanin content in primary human melanocytes (in words) ([1]; galardin by itself at 10 μM): modest reduction

SMILES: NC(=O)c1cccnc1 [Niacinamide, pyridine-3-carboxamide]
- inhibition at 1000 µM [1, 2]: -7%
- inhibition at 10000 µM [1, 2]: 16%
- inhibition at 10 µM (Tyrosinase enzyme; 0.01 mM Niacinamide): 2%
- inhibition at 100 µM (Tyrosinase enzyme; 0.1 mM Niacinamide): 2%
- inhibition at 1000 µM (Tyrosinase enzyme; 1 mM Niacinamide): 4%
- inhibition at 10000 µM (Tyrosinase enzyme; 10 mM Niacinamide): -8%
- inhibition at 50000 µM (Tyrosinase enzyme; 50 mM Niacinamide): -20%
